Data set [1] addresses T1, Serine/threonine-protein kinase Chk1 (Homo sapiens, UniProt O14757).
T1 sequence (O14757 whole entry): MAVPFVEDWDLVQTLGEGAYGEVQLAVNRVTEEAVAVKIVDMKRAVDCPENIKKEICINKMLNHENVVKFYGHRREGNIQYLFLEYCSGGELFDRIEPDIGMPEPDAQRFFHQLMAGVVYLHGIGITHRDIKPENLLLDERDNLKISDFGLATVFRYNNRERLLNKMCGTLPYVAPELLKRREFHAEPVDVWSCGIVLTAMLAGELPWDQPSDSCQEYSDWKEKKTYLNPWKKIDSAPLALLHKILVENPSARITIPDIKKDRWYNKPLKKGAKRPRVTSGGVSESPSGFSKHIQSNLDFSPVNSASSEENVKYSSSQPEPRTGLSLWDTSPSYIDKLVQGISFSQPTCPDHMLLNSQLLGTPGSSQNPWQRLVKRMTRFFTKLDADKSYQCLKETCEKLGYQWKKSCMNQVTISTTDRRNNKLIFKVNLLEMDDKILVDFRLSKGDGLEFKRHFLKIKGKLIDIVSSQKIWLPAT
In words: Inhibition of human recombinant CHK1 expressed in insect cells using biotinylaminohexanoyl-KKVSRSGLYRSPMPENLNRPR as substrate after 2 hrs by scintillation proximity assay. (Scintillation proximity formats need no separation of bound from free tracer.)

Data set [2] is described as follows: AUC in nude mouse. Also noted: concentration or dose not given beside the values. Type of data set: ADME, organism-based. To be noted: plasma.
Data set [3] in a line: Clearance in nude mouse. Type of data set: ADME, organism-based. To be noted: in vivo.
A short description of data set [4]: Volume of distribution at steady state in nude mouse. The data set is classed as ADME, organism-based. To be noted: in vivo, read-out: Vdss.
Data set [5] in a line: Half life in nude mouse. Type of data set: ADME, organism-based. To be noted: in vivo.
Data set [6] in a line: Fraction unbound in human plasma. The data set is classed as ADME, cell-free.
Data set [7] is described as follows: Lipophilicity, log D of the compound. Type of data set: physicochemical. The settings on record: octanol/water.
Data set [8] can be described thus: Thermodynamic solubility of the compound in 0.1 M phosphate buffer at pH 7.4. The data set is classed as physicochemical. To be noted: read-out: Therm_solubility.
In data set [9] the target is Serine/threonine-protein kinase Chk2 (Homo sapiens, UniProt O96017). The data set can be described thus: Inhibition of CHK2.
Data set [10] in a line: Clearance in dog. The settings on record: in vivo. The data set is classed as ADME, organism-based, Canis lupus familiaris.
Data set [11] in a line: Clearance in rat. Type of data set: ADME, organism-based. To be noted: in vivo.
Data set [12] in a line: Half life in dog. To be noted: in vivo. Type of data set: ADME, organism-based, Canis lupus familiaris.
Data set [13] in a line: Half life in rat. To be noted: in vivo. The data set is classed as ADME, organism-based.
The target of data set [14] is CYP450 (Homo sapiens, UniProt P04798+P05177+P05181+P08684+P10632+P10635+P11509+P11712+P13584+P20813+P20815+P20853+P24462+P24903+P33260+P33261+P51589+P78329+P98187+Q02928+Q08477+Q16678+Q16696+Q5TCH4+Q6VVX0+Q7Z449+Q8TAV3+Q96SQ9+Q9HB55). In words: Inhibition of CYP450. The data set is classed as ADME.

Sequence of Serine/threonine-protein kinase Chk2 (O96017 whole entry): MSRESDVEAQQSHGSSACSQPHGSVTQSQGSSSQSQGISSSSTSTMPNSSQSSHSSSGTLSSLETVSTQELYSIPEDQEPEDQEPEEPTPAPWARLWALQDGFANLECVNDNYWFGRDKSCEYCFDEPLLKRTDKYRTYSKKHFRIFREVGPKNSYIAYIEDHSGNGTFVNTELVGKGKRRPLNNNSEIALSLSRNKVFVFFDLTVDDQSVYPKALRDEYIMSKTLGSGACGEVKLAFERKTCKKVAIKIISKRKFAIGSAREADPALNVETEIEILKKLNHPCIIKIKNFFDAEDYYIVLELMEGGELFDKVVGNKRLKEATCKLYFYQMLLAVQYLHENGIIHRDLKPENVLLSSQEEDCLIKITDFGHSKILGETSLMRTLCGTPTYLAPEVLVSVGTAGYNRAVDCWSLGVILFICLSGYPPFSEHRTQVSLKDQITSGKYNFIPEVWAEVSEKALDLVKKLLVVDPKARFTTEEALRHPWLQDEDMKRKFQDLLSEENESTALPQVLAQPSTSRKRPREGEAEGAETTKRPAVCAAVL

Broadly, the IC50 is the concentration that inhibits the measured activity by half. The AUC is the area under the concentration-time curve, a measure of exposure. In general, clearance refers to a measure of how efficiently the substance is removed, as volume per time. By half-life is commonly meant how long it takes for the measured level to halve. For `Cl.NC(=O)Nc1sc(-c2cccc(F)c2F)cc1C(=O)N[C@H]1CCCNC1`, the IC50 in data set [1] amounted to 0.011 µM. Also, the AUC in data set [2] was 1700 nM·h. Further, the clearance in data set [3] amounted to 4.26 L/h/kg. Moreover, in [4], the Vd came to 4.5 L/kg. Further, in data set [5], the half-life was 1.2 h.
As for `Cl.NC(=O)Nc1sc(-c2ccc(F)cc2)cc1C(=O)N[C@H]1CCCNC1`, in data set [2], the AUC worked out at 1500 nM·h. The clearance in data set [3] stood at 4.86 L/h/kg. Moreover, the Vd in data set [4] worked out at 6.1 L/kg. Further, the half-life in [5] was determined as 1.2 h.
As for `NC(=O)Nc1sc(-c2ccc(F)cc2F)cc1C(=O)N[C@H]1CCCNC1`, the IC50 in data set [1] came out at 0.013 µM.
As usually defined, the fraction unbound is the share of the substance not bound to proteins or other matrix. The compound `NC(=O)Nc1sc(-c2ccccc2)cc1C(=O)N[C@H]1CCCNC1` gave a free fraction (fraction unbound) in data set [6] of 0.077.
One may read the logD as lipophilicity at a set pH, counting ionised and neutral species. As for `NC(=O)Nc1cc(-c2ccccc2)sc1C(=O)N[C@H]1CCCNC1`, the IC50 in data set [1] was found to be 0.01 µM. This compound also gave a fraction unbound in [6] of 0.32. The log distribution coefficient (logD) in data set [7] amounted to 1.04.
On to `N#Cc1ccc(-c2cc(NC(N)=O)c(C(=O)N[C@H]3CCCNC3)s2)cc1`, for which the IC50 in data set [1] stood at 0.006 µM.
As to `NC(=O)Nc1cc(-c2cc(F)cc(F)c2)sc1C(=O)N[C@H]1CCCNC1`, in data set [1], the concentration for half-maximal inhibition (IC50) was 0.01 µM.
In the case of `NC(=O)Nc1cc(-c2cccc(F)c2)sc1C(=O)N[C@H]1CCCNC1` [AZD-7762], in [8], the solubility thermodynamic was more than 1000 µM. Also, in data set [2], the exposure (AUC) was found to be 2500 nM·h. The clearance in [3] was found to be 3 L/h/kg; in data set [10], 2.14 L/h/kg; in data set [11], 0.768 L/h/kg. For the same compound, the Vd in data set [4] amounted to 3.9 L/kg. Also, the values for the half-life in data set [5], in [12] and in [13] were 1.1 h, 1.5 h and 5.2 h, respectively. The IC50 is less than 0.01 µM in [9] and more than 10 µM in [14]. Besides, the free fraction (fraction unbound) in [6] was 0.26. In data set [7], this compound yielded a logD of 1.2.
In the case of `NC(=O)Nc1sc(-c2ccc(Cl)c(Cl)c2)cc1C(=O)N[C@H]1CCCNC1`, in data set [1], the IC50 is 0.03 µM.
As for `Cl.NC(=O)Nc1cc(-c2cccc(F)c2F)sc1C(=O)N[C@H]1CCCNC1`, the IC50 in data set [1] stood at 0.02 µM. The AUC in data set [2] turned out to be 1400 nM·h. In data set [3], this compound came in with a clearance of 5.1 L/h/kg. Also, the Vd in data set [4] stood at 7.7 L/kg. In data set [5], the half-life is 1.4 h.
Consider `NC(=O)Nc1sc(-c2cc(F)cc(F)c2)cc1C(=O)N[C@H]1CCCNC1`, for which, in [1], the IC50 turned out to be 0.012 µM.
The same measure, in the same setting: the figure for `NC(=O)Nc1cc(-c2ccc(F)cc2F)sc1C(=O)N[C@H]1CCCNC1` is 0.03 µM.
As for `Cl.NC(=O)Nc1cc(-c2ccc(F)cc2)sc1C(=O)N[C@H]1CCCNC1`, the IC50 in data set [1] turned out to be 0.006 µM. This compound came in with an AUC in data set [2] of 1460 nM·h. The compound further gave a clearance in data set [3] of 5.16 L/h/kg. In addition, in [4], the Vd was found to be 8.5 L/kg. In [5], this compound came in with a half-life of 1.2 h.
Regarding `N#Cc1cccc(-c2cc(NC(N)=O)c(C(=O)N[C@H]3CCCNC3)s2)c1`, the 50% inhibitory concentration (IC50) in data set [1] is 0.007 µM.
`Cl.NC(=O)Nc1sc(-c2cccc(F)c2)cc1C(=O)N[C@H]1CCCNC1` yielded an AUC in data set [2] of 3800 nM·h. This compound also registered a clearance in data set [3] of 1.98 L/h/kg. Moreover, the Vd in data set [4] was 2.8 L/kg. The half-life in data set [5] was found to be 1 h.
For `NC(=O)Nc1cc(-c2cccc(Cl)c2)sc1C(=O)N[C@H]1CCCNC1`, the 50% inhibitory concentration (IC50) in [1] came to 0.008 µM.
Consider `NC(=O)Nc1cc(-c2ccccc2F)sc1C(=O)N[C@H]1CCCNC1`, for which the IC50 in [1] amounted to 0.02 µM.
`N#Cc1cccc(-c2cc(C(=O)N[C@H]3CCCNC3)c(NC(N)=O)s2)c1`: in data set [1], the IC50 amounted to 0.009 µM.
The same measure, in the same setting: as for `NC(=O)Nc1cc(-c2ccc(Cl)c(Cl)c2)sc1C(=O)N[C@H]1CCCNC1`, the figure is 0.04 µM.

(Values after ChEMBL document CHEMBL2069189, “Discovery of checkpoint kinase inhibitor (S)-5-(3-fluorophenyl)-N-(piperidin-3-yl)-3-ureidothiophene-2-carboxamide (AZD7762) by structure-based design and optimization of thiophenecarboxamide ureas” (J Med Chem, 2012).)
